Test results published in US20160361365A1, “TREATMENT OF CNS DISEASE WITH ENCAPSULATED INDUCIBLE CHOROID PLEXUS CELLS” (Living Cell Technologies New Zealand Limited, priority 2015, published 2016).
Where a name gives a salt, the structure may show the parent alone.

Experiments:
Type in all cases: cell-based, porcine
[1] = tested on: CP clusters containing CP cells; test: RNA-Seq of CP clusters for genes encoding CSF components after exposure to inducing agent; conditions: 12 mM LiCl, 72 hours, vs controls; FIG. 8
Procedure: In a further experiment to identify genes for which the expression levels were altered in CP cells following contact with an inducing agent as provided herein, CP clusters (5×10^3 clusters/mL) containing CP cells, obtained from 12-13 day-old piglets and cultured in vitro for 20-22 days, were incubated for 72 hours in serum-free, phenol-free RPMI medium containing 10 mM nicotinamide in the absence (controls) or presence (inducing agent-treated) of 12 mM LiCl. Cell pellets were harvested and 0.25 ml of TRI™ Reagent (Catalog # T9424, Sigma-Aldrich Corporation, St. Louis, Mo.) was added to lyse the cells. The lysate was pipetted up and down approximately 10 times and stored at −80° C. until RNA-Seq analysis. […] Corresponding human genes encoding human CSF components were identified by established orthology analysis (Groenen et al., 2012 Nature 491(7424):393-8).

encapsulated CP = test: VEGF secretion by encapsulated CP cultured with or without inducers; conditions: 1000 CP-containing capsules, 24 hours at 37° C.; FIG. 3B
Procedure: To determine that certain inducers can increase the secretion of CSF components by CPs that have been encapsulated, 1000 CP-containing capsules were cultured in 24-well multi-well plate with or without various inducers including LiCl at 37° C. for 24 hours. Aliquots of supernatant fluids were collected and assayed for VEGF as described in EXAMPLE 1. Aliquots of the cell cultures were also collected for DNA quantification to determine the relative number of cells in each well as described in EXAMPLE 1.

[2] = tested on: Choroid plexus (CP) cell clusters; test: Total antioxidant capacity (TAC) of culture supernatants of CP cell clusters exposed to candidate CP inducing agents (OxiSelect TAC assay); conditions: non-encapsulated CP clusters, 72 hours; FIG. 2
Procedure: Choroid plexus (CP) cell clusters comprising CP cells (5×10^3 clusters/mL) were prepared as described above in Example 1 but without encapsulation and cultured at 37° C. in a 5% CO2 incubator for 24 or 72 hours in vitro in 24-well ultra-low (cell) attachment plates, and culture supernatants were tested for total antioxidant capacity (TAC) using the OxiSelect™ TAC assay (Cat. No. STA-360, Cell Biolabs, Inc., San Diego, Calif.) according to the manufacturer's instructions. To avoid interference in the TAC assay from medium components, cultures were incubated in serum-free, phenol-free RPMI media supplemented with 10 mM nicotinamide. A panel of candidate CP inducing agents was also tested for effects on TAC elaboration by CP cells. Control wells that received the culture medium alone or with each candidate CP inducing agent, but no CP cell clusters, were also incubated and tested for TAC.

SMILES	expression levels of porcine genes encoding known CSF components [1]	VEGF secretion by encapsulated CP versus culture without inducers (encapsulated CP)	release of total antioxidant capacity (TAC) by CP cells [2]
[Cl-].[Li+] [LiCl, lithium chloride]	expression levels increased (FIG. 8A-E) or decreased (FIG. 8F-K)	induced VEGF secretion by encapsulated CP above the level secreted by encapsulated CPs cultured without inducers	promoted the release by CP cells of elevated TAC levels
COC1=C(OC)C(=O)C(CCCCCCCCCC[P+](c2ccccc2)(c2ccccc2)c2ccccc2)=C(C)C1=O [MitoQ, 10-(6′-ubiquinoyl) decyltriphenylphosphonium salt]	–	induced VEGF secretion by encapsulated CPs	–
O=C([O-])[O-].[Li+].[Li+] [lithium carbonate]	–	induced VEGF secretion by encapsulated CP above the level secreted by encapsulated CPs cultured without inducers	–
NCCS(=O)(=O)O [taurine, 2-aminoethanesulfonic acid]	–	induced VEGF secretion by encapsulated CPs	–
